Each structure is given as a SMILES string. Where “and” joins values, the source holds several entries; their conditions need not be identical. Equal values may be shown once. Where only a bound is given, the exact number is not on record here.

One data set concerns OAT1. The following applies: Supplementary table, cited from earlier work; for IC50: ref previous reports (superscript numbers).
Another data set has as its system OAT3. The following applies: Supplementary table, cited from earlier work; for IC50: ref previous reports (superscript numbers).
In another data set the test system is OATP1B1. The settings on record: Supplementary table, ref previous reports (superscript numbers), cited from earlier work; for IC50: read-out: OATP1B1 IC50; for Ki: read-out: OATP1B1 Ki (asterisk).
The next data set concerns OATP1B3. The following applies: cited from earlier work; for IC50: read-out: OATP1B3 IC50; for IC50 / Ki: ref previous reports (superscript numbers); for Ki: read-out: OATP1B3 Ki (asterisk).
In another data set the test system is OATP2B1. The following applies: Supplementary table, ref previous reports (superscript numbers), cited from earlier work; for IC50: read-out: OATP2B1 IC50; for Ki: read-out: OATP2B1 Ki (asterisk).
In data set [1] the target is T1, OATP4C1 (Homo sapiens, UniProt Q6ZQN7).
T1 sequence (Q6ZQN7 1-724): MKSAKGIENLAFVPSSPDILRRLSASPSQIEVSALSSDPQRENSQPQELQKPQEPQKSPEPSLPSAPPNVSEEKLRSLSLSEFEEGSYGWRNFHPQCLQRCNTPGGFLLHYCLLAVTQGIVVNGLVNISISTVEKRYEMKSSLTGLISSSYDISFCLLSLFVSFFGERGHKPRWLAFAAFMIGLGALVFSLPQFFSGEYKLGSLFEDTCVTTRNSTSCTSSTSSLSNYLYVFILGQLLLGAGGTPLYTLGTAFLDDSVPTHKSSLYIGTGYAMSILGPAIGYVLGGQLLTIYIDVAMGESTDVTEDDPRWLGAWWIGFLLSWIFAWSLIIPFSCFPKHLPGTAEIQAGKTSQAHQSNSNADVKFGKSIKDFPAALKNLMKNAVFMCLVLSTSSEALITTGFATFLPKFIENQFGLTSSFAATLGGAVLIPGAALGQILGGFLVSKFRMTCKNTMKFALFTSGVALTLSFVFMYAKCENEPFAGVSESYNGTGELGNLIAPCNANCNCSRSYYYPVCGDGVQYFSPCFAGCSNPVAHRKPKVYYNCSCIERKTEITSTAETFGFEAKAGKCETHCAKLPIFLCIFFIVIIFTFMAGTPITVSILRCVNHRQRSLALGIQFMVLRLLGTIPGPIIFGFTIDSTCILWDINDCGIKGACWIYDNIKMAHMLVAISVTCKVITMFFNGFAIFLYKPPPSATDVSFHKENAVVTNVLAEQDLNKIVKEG
Description: Inhibition of OATP4C1-mediated T3 uptake in OATP4C1/MDCKII cells. The following applies: for alteration of OATP4C1-mediated transport (in words): 100 µM (theaflavin 50 µM); for inhibition at 10 min, 100 µM: human, pH 7.4, probe T3 (1 µM); for Ki: Ki for OATP4C1 (average); for inhibitory effect on OATP4C1-mediated transport in the presence of AA compared with its absence: 10 µM AA.
Description: Figure 3 Screening of the effect of food ingredients on OATP4C1-mediated transport. Cells were incubated with 1 µM T3 with or without food ingredients for 10 min at 37 °C. The concentration of the compounds was 100 µM, except for theaflavin (50 µM). The amount of OATP4C1-mediated uptake was calculated by subtracting the nonspecific uptake of T3 by mock cells from the total cellular uptake by OATP4C1-expressing cells. […] Dashed line represents 100% (control uptake in the absence of food ingredient).
The MDCKII cells transfected with OATP4C1 or an empty vector were established in our laboratory [18].
The cellular uptake of T3 was measured in monolayer cell cultures grown in 24-well plates. Cells were seeded at a density of 2.0 × 10^5 cells/well. Thereafter, the cells were incubated in a culture medium containing 5 mM sodium butyrate for 24 h before the uptake study. […] Cellular uptake was initiated by adding T3-containing KH buffer with or without each flavonoid. Uptake was terminated after 10 min by replacing the incubation buffer with ice-cold KH buffer. The cells were washed twice with ice-cold KH buffer. The concentration of T3 was measured using liquid chromatography/tandem mass spectrometry (LC/MS/MS). Cellular uptake was presented as the uptake amount divided by the amount of cellular protein quantified using the Bradford protein assay. The experiment was performed in triplicate (n = 3) and repeated three times. Flavonoids, except ellagic acid, were dissolved in dimethyl sulfoxide (DMSO) at a final concentration of less than 0.5%. A stock solution of ellagic acid (20 mM) was obtained by dissolving it in 0.05 M NaOH and was further diluted to 100 µM in KH buffer (the pH was adjusted to 7.4).
The experiment was performed in triplicate (n = 3) and repeated three times.

The target in data set [2] is T1, OATP4C1. The data set is described as follows: Kinetic analysis of OATP4C1-mediated T3 uptake in the presence of inhibitors. On the set-up: expressed in transfected cells; sodium butyrate induction before uptake. The class given is cell-based. As for the experimental part:
Data are shown as the mean ± SE (n = 6). The kinetic curves were fitted to the Michaelis–Menten equation. […] Each curve represents the fitted line obtained by the kinetic analysis by JMP Pro 16.
The kinetic curves were fitted to the Michaelis–Menten equation. […] The experiment was performed in duplicate (n = 2) and repeated three times.

A further data set concerns P-gp. The settings on record: Supplementary table; ref 40 of the supplement; cited from earlier work.
[3] abbreviates: 100 µM compound, 1 µM T3, 10 min, 37 °C, without AA.
[4] abbreviates: OATP4C1 inhibition degree, 100 µM, Supplementary table.
[5] abbreviates: inhibition of OATP4C1-mediated transport, 100 µM compound, 1 µM T3, 10 min, 37 °C, without AA.

In general, Ki refers to the dissociation constant of the complex between target and ligand, obtained from inhibition or displacement. One may read the IC50 as the concentration that gives 50% inhibition. Broadly, the EC50 is the concentration giving half of the maximal effect. Turning to `O=C(O[C@@H]1Cc2c(O)cc(O)cc2O[C@@H]1c1cc(O)c(O)c(O)c1)c1cc(O)c(O)c(O)c1` [EGCG, epigallocatechin-3-gallate], the inhibition constant (Ki) is 334 ± 58 µM in the data set on OAT1 (ref 27 of the supplement, read-out: OAT1 Ki (asterisk)) and 162 ± 29 µM in the data set on OAT3 (ref 27 of the supplement, read-out: OAT3 Ki (asterisk)). Further, the 50% inhibitory concentration (IC50) is 14.1 µM and 7.8 µM with OATP1B1; 8.4 ± 0.6 µM in the data set on OATP1B3 (Supplementary table); 101 ± 9 µM with OATP2B1. Besides, the “OATP1B3 inhibition or elevation (class)” value in the data set on OATP1B3 (Supplementary table, ref 25 of the supplement) is reported as “Elevation”. Moreover, the EC50 in the data set with OATP1B3 (read-out: OATP1B3 elevation EC50, mean ± S.E., ref 25 of the supplement) was 10.5 ± 1.6 µM. Besides, at OATP4C1 [1] (1 µM T3, 10 min, without AA), the “alteration of OATP4C1-mediated transport (in words)” value (shortened to “alteration”) is “did not inhibit”. In addition, the “OATP4C1 inhibition or elevation (class)” value on OATP4C1 [1] (Supplementary table) is recorded as “No”.

As usually defined, the inhibition is the share of the control response that was lost under treatment. For `O=c1cc(-c2ccc(O)cc2)oc2cc(O)cc(O)c12` [apigenin], the concentration for half-maximal inhibition (IC50) in the data set on OAT1 was 0.212 ± 0.01 µM; in the data set with OAT3, 0.41 ± 0.157 µM; with OATP1B1, 53.4 ± 2.1 µM. In addition, the inhibition constant (Ki) was 0.6 ± 0.2 µM with OATP1B1 and 16.7 ± 1.6 µM with OATP1B3 (Supplementary table). The “inhibition of OATP4C1-mediated transport” value against OATP4C1 [1] (setting [3]) is 66%. Besides, the “OATP4C1 inhibition or elevation (class)” value on OATP4C1 [1] (Supplementary table) is “Yes”. For the same compound, the inhibition at 10 min, 100 µM is 54% against OATP4C1 [1] (setting [4]) and no less than 50% on OATP4C1 [1] (setting [5]).

On to `O=c1oc2c(O)c(O)cc3c(=O)oc4c(O)c(O)cc1c4c23` [ellagic acid], for which the IC50 in the data set with OAT1 is 0.207 µM. On OATP4C1 [1] (1 µM T3, 10 min, without AA), the “alteration” value is “did not inhibit”. For the same compound, the “elevation of OATP4C1-mediated transport” value on OATP4C1 [1] (setting [3]) is given as 13%. For the same compound, the OATP4C1 elevation degree on OATP4C1 [1] (100 µM, Supplementary table) turned out to be 13%. For the same compound, the “OATP4C1 inhibition or elevation (class)” value on OATP4C1 [1] (Supplementary table) was “Elevation”.

For the compound `COc1cc(/C=C/C(=O)O)ccc1O` [ferulic acid, Ferulic acid], the concentration for half-maximal inhibition (IC50) is 9.01 µM with OAT1 and 7.35 ± 3.73 µM in the data set with OAT3. In addition, the “alteration” value on OATP4C1 [1] (1 µM T3, 10 min, without AA) is “did not inhibit”. Besides, at OATP4C1 [1] (Supplementary table), the “OATP4C1 inhibition or elevation (class)” value is reported as “No”.

On to `O=c1c(O)c(-c2ccc(O)cc2)oc2cc(O)cc(O)c12` [kaempferol], for which the concentration for half-maximal inhibition (IC50) in the data set with OATP1B1 is 32.4 µM and 33 µM; with OATP2B1, 20.7 ± 1.8 µM; at OATP4C1 [1] (IC50 for OATP4C1, AA(+) 10 µM, 1 µM T3, 10 min), 33.7 µM; at OATP4C1 [1] (IC50 for OATP4C1, AA(−), 1 µM T3, 10 min), 29.3 µM. In addition, the Ki is 16 ± 1.9 µM in the data set with OATP1B1; 24.4 ± 1.8 µM with OATP1B3 (Supplementary table); 15.1 ± 7.8 µM with OATP2B1; 28.8 µM at OATP4C1 [1] (AA(+) 10 µM, 1 µM T3, 10 min); 25.1 µM on OATP4C1 [1] (AA(−), 1 µM T3, 10 min). Also, the “Vmax of OATP4C1-mediated T3 uptake in the presence of the inhibitor” value at OATP4C1 [2] (inhibitor 30 µM, 10 µM AA, 10 min, 37 °C) stood at 517 ± 92.6 pmol/mg Protein/10 min. Also, the “manner of inhibition of OATP4C1-mediated T3 uptake” value on OATP4C1 [2] (kinetic analysis) is on record as “competitive manner”.

Consider `O=c1cc(-c2ccc(O)c(O)c2)oc2cc(O)cc(O)c12` [luteolin], for which the half-maximal inhibitory concentration (IC50) is 4.2 µM with OAT3 and 0.42 µM with OATP2B1. Also, the “inhibitory effect on OATP4C1-mediated transport in the presence of AA compared with its absence” value (from here on “inhibitory effect … compared with its absence”) at OATP4C1 [1] (100 µM compound) was “weakened”. Moreover, on OATP4C1 [1] (Supplementary table), the “OATP4C1 inhibition or elevation (class)” value is recorded as “Yes”. For the same compound, the inhibition at 10 min, 100 µM at OATP4C1 [1] (setting [4]) is 52%; against OATP4C1 [1] (setting [5]) it was no less than 50%.

In the case of `O=c1c(O)c(-c2ccc(O)cc2O)oc2cc(O)cc(O)c12` [morin], in the data set on OAT1, the IC50 was < 0.3 µM and 0.5 µM. The “inhibitory effect … compared with its absence” value at OATP4C1 [1] (100 µM compound) was “weakened”. The “OATP4C1 inhibition or elevation (class)” value at OATP4C1 [1] (Supplementary table) is “Yes”. For the same compound, the values for the inhibition at 10 min, 100 µM against OATP4C1 [1] (setting [4]) and at OATP4C1 [1] (setting [5]) were 57% and no less than 50%, respectively.

For `O=c1c(O)c(-c2ccc(O)c(O)c2)oc2cc(O)cc(O)c12` [quercetin], the Ki with OATP1B1 was 8.8 ± 0.8 µM; with OATP1B3 (Supplementary table) it was 7.8 ± 1.7 µM; with OATP2B1, 8.7 ± 0.1 µM. In addition, in the data set on OATP1B3 (Supplementary table), the IC50 was 3.22 µM. At OATP4C1 [1] (100 µM compound), the “inhibitory effect … compared with its absence” value is given as “weakened”. Further, on OATP4C1 [1] (Supplementary table), the “OATP4C1 inhibition or elevation (class)” value is listed as “Yes”. In addition, the inhibition at 10 min, 100 µM on OATP4C1 [1] (setting [4]) was 50%; against OATP4C1 [1] (setting [5]), no less than 50%.

As for `Oc1ccc(/C=C/c2cc(O)cc(O)c2)cc1` [resveratrol, Resveratrol], the IC50 was 6.64 µM in the data set on P-gp, 9.1 µM in the data set with OATP1B1, 11.6 µM with OATP1B3 (Supplementary table) and 8.3 µM with OATP2B1. The inhibition at 10 min, 100 µM against OATP4C1 [1] (setting [4]) and against OATP4C1 [1] (setting [5]) was 46% in each case.

The values are drawn from paper PMC10815578 (International Journal of Molecular Sciences, 2024).
